Reference: US7589213B2 (priority 2007, dated 2009)

Assays:
EP2 [1] = biological target: T1, EP2 (Homo sapiens, UniProt P43116); test: EP2 cAMP assay; assay type: cell-based
Text: (§1) U.S. patent application Ser. No. 11/553,143, filed on Oct. 26, 2006, incorporated by reference herein, describes the methods used to obtain the in vitro data in the table below.

EP4 [2] = biological target: T2, EP4 (Homo sapiens, UniProt P35408); test: EP4 binding (KI)
Text: as §1

hEP1 = biological target: T3, hEP1 (Homo sapiens, UniProt P34995); test: Other receptors functional EC50, hEP1; assay type: cell-based
T3 sequence (P34995 1-402): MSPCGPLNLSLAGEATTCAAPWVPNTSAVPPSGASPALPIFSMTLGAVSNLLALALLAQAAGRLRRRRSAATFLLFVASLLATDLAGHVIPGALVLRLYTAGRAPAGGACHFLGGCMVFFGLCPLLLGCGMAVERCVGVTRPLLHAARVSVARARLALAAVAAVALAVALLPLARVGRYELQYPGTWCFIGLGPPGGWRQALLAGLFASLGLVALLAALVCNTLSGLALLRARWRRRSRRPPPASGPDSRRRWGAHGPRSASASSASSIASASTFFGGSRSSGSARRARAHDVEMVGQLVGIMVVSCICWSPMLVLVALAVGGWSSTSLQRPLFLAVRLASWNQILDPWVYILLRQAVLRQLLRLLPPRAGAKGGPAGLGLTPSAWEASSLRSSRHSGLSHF
Text: as §1

hDP = biological target: T4, hDP (Homo sapiens, UniProt Q13258); test: Other receptors functional EC50, hDP; assay type: cell-based
T4 sequence (Q13258 1-359): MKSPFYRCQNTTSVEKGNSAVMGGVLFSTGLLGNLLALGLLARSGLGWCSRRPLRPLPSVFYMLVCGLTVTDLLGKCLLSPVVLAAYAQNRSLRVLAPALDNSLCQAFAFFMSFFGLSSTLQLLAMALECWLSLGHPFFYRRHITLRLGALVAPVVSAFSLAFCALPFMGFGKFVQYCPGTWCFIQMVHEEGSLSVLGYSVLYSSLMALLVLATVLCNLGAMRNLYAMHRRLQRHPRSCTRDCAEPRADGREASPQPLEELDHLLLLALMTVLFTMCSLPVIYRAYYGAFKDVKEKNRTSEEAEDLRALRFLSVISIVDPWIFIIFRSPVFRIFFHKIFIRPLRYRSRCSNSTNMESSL
Text: as §1

hEP3A = biological target: T5, hEP3A (Homo sapiens, UniProt P43115); test: Other receptors functional EC50, hEP3A; assay type: cell-based
T5 sequence (P43115 1-390): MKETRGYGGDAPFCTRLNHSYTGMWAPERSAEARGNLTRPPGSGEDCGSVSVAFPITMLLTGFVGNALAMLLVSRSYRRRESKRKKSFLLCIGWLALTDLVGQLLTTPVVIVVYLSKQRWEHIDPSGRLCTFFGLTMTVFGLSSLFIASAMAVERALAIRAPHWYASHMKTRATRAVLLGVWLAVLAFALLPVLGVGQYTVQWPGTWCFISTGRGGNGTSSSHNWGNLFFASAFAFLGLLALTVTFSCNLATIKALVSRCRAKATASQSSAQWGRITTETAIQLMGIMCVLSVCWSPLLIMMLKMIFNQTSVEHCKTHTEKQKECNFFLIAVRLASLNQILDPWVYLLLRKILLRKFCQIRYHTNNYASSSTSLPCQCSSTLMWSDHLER
Text: as §1

EP2 [3] = biological target: T1, EP2; test: EP2 flipr assay; assay type: cell-based
Text: as §1

EP2 [4] = biological target: T1, EP2; test: EP2 binding (Ki)
Text: as §1

normotensive dogs = test: Intraocular pressure and ocular surface hyperemia in normotensive dogs; assay type: in vivo, dog; conditions: once daily for 5 days
Method: U.S. Pat. No. 7,091,231 describes the methods used to carry out the tests reported below.
[…] The maximum intraocular pressure (IOP) decrease from baseline was 6.3 mmHg (39%) at 4 h; the maximum ocular surface hyperemia (OSH) score was 1.6 at 28 hours. This compound was also tested in laser-induced hypertensive monkeys, using one single day dose. At 0.01%, the maximum IOP decrease from baseline was 23 mmHg (61%) at 24 hours.

hTP = biological target: T6, hTP (Homo sapiens, UniProt P21731); test: Other receptors functional EC50, hTP; assay type: cell-based
T6 sequence (P21731 1-343): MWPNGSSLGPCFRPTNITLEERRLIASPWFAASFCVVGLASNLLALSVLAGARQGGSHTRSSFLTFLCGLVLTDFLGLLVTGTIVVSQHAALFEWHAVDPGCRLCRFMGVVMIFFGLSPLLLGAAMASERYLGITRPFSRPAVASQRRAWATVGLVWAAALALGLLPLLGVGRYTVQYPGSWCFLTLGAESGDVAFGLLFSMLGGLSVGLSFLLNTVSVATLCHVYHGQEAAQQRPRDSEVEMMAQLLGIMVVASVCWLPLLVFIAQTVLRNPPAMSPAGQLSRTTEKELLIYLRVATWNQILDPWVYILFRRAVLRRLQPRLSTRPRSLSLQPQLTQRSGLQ
Text: as §1

EP4 [5] = biological target: T2, EP4; test: EP4 flipr assay; assay type: cell-based
Text: as §1

hIP = hIP (Homo sapiens, UniProt P43119); test: Other receptors functional EC50, hIP; assay type: cell-based
Text: as §1

T2 sequence (P35408 whole entry): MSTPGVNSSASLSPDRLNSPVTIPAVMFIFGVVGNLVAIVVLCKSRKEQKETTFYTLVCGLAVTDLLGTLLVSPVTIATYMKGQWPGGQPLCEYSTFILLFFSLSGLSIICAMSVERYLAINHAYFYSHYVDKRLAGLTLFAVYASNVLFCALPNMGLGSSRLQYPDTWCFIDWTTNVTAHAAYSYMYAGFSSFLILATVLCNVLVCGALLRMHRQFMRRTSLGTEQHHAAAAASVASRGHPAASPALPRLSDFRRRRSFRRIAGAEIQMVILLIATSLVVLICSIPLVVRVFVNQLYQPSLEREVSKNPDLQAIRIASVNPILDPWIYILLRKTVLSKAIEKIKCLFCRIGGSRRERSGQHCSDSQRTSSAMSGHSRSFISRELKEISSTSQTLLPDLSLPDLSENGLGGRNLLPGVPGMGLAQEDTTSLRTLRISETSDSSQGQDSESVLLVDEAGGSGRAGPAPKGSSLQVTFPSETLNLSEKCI
T1 sequence (P43116 whole entry): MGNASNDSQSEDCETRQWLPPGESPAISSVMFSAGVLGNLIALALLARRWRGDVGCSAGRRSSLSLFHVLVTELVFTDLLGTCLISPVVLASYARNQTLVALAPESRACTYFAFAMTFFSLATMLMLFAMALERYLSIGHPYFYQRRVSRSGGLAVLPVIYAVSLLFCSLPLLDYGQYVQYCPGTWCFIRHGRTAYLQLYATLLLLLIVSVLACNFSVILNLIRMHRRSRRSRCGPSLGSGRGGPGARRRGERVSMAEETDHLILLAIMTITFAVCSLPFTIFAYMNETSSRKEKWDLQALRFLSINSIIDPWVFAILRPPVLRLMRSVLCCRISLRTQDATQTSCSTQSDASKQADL
Chain of hIP (P43119 whole entry): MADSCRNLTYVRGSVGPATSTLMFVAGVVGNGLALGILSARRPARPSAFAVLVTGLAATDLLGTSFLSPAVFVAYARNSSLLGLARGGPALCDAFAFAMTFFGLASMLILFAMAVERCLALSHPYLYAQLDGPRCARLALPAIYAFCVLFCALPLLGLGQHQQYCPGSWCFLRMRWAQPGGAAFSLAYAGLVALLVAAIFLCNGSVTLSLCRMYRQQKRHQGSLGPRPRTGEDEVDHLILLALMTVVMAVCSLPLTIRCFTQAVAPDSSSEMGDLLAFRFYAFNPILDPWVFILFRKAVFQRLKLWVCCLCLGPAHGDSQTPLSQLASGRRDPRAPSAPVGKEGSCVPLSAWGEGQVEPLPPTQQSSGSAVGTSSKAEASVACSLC

EC50 (EP2 [1]) [nM] | Ki (EP4 [2]) [nM] | EC50 (hEP1) [nM] | EC50 (hDP) [nM] | EC50 (hEP3A) [nM] | EC50 (EP2 [3]) [nM] | Ki (EP2 [4]) [nM] | maximum ocular surface hyperemia (OSH) score (normotensive dogs; 0.01%, maximum at 28 hours) | EC50 (hTP) [nM] | EC50 (EP4 [5]) [nM] | EC50 (hIP) [nM] | maximum ocular surface hyperemia (OSH) score (normotensive dogs; 0.001%, maximum at 50 hours) | maximum ocular surface hyperemia (OSH) score (normotensive dogs; 0.01%, maximum at 26 hours) | Structure (SMILES)
0.23 | > 10000 | > 10000 | > 10000 | 90 | 8 | 9 | – | – | – | – | – | – | CCCCCC(F)c1ccc(N2C(=O)CC[C@@H]2CCSc2nc(C(=O)O)cs2)cc1 (stereo partly drawn) [compound 19, (R)-2-(2-(1-(4-(1-fluorohexyl)phenyl)-5-oxopyrrolidin-2-yl)ethylthio)thiazole-4-carboxylic acid]
– | – | – | – | – | – | – | 2.0 | – | – | – | – | – | CCCCCC(O)c1ccc(N2C(=O)CC[C@@H]2CCSc2nc(C(=O)OC(C)C)cs2)cc1 (single isomer, unassigned) [compound 68]
– | – | – | – | – | – | – | 1.6 | – | – | – | – | – | CCCCCC(O)c1ccc(N2C(=O)CC[C@@H]2CCSc2nc(C(=O)OC(C)C)cs2)cc1 (stereo partly drawn) [compound 66, Isopropyl 2-(2-((2R)-1-(4-(1-hydroxyhexyl)phenyl)-5-oxopyrrolidin-2-yl)ethylthio)thiazole-4-carboxylate]
120 | > 10000 | – | 16000 | 360 | 284 | 355 | – | 3890 | – | – | – | – | CCCCCC(O)c1ccc(N2C(=O)CC[C@@H]2CSc2nc(C(=O)O)cs2)cc1 (stereo partly drawn) [compound 55]
0.15 | – | > 10000 | > 10000 | 35 | 18 | 15 | – | – | – | – | – | – | CCCCCC(O)c1ccc(N2C(=O)CC[C@@H]2CCSc2nc(C(=O)O)cs2)cc1 (single isomer, unassigned) [compound 17]
0.7 | 3030 | – | 594 | 43 | 45 | 18 | – | – | > 10000 | – | – | – | CCCCCCC(=O)c1ccc(N2C(=O)CC[C@@H]2CCSc2nc(C(=O)O)cs2)cc1 [compound 38, (R)-2-(2-(1-(4-heptanoylphenyl)-5-oxopyrrolidin-2-yl)ethylthio)thiazole-4-carboxylic acid]
0.19 | > 10000 | > 10000 | > 10000 | 44 | 36 | 11 | – | > 10000 | – | > 10000 | – | – | CCCCCC(O)c1ccc(N2C(=O)CC[C@@H]2CCSc2nc(C(=O)O)cs2)cc1 (stereo partly drawn) [compound 14, (R)-2-(2-(1-(4-(1-hydroxyhexyl)phenyl)-5-oxopyrrolidin-2-yl)ethylthio)thiazole-4-carboxylic acid]
40 | > 10000 | – | – | 3410 | 5010 | 1930 | – | – | – | – | – | – | CCCCCC(F)c1ccc(N2C(=O)CC[C@@H]2COCc2csc(C(=O)O)c2)cc1 (stereo partly drawn) [compound 48, (R)-4-(((1-(4-(1-fluorohexyl)phenyl)-5-oxopyrrolidin-2-yl)methoxy)methyl)thiophene-2-carboxylic acid]
– | – | – | – | – | – | – | – | – | – | – | 1.9 | 2.0 | CCCCCC(O)c1ccc(N2C(=O)CC[C@@H]2CCSc2nc(C(=O)OC(C)C)cs2)cc1 (single isomer, unassigned) [compound 67]
117 | > 10000 | – | 16400 | 503 | 212 | 345 | – | 14500 | – | – | – | – | CCCCCC(F)c1ccc(N2C(=O)CC[C@@H]2CSc2nc(C(=O)O)cs2)cc1 (stereo partly drawn) [compound 54]
4 | > 10000 | – | > 10000 | 11400 | 1800 | 389 | – | – | – | > 10000 | – | – | CCCCCC(O)c1ccc(N2C(=O)CC[C@@H]2CCSc2ncc(C(=O)O)s2)cc1 (stereo partly drawn) [compound 22, (R)-2-(2-(1-(4-(1-hydroxyhexyl)phenyl)-5-oxopyrrolidin-2-yl)ethylthio)thiazole-5-carboxylic acid]
1.2 | > 10000 | – | 11900 | 11 | 57 | 13 | – | – | – | – | – | – | CCCCCCC(O)c1ccc(N2C(=O)CC[C@@H]2CCSc2nc(C(=O)O)cs2)cc1 (single isomer, unassigned) [compound 36]
0.09 | – | – | 7170 | 46 | 7 | 15 | – | – | – | – | – | – | CCCCCC(O)c1ccc(N2C(=O)CC[C@@H]2CCSc2nc(C(=O)O)cs2)cc1 (single isomer, unassigned) [compound 18]
5.5 | > 10000 | – | – | 1520 | 2240 | 448 | – | – | – | – | – | – | CCCCCC(O)c1ccc(N2C(=O)CC[C@@H]2COCc2cc(C(=O)O)cs2)cc1 (stereo partly drawn) [compound 42, (R)-5-(((1-(4-(1-hydroxyhexyl)phenyl)-5-oxopyrrolidin-2-yl)methoxy)methyl)thiophene-3-carboxylic acid]
0.8 | – | – | > 10000 | 42 | 37 | 115 | – | – | – | – | – | – | CCCCCC(O)c1ccc(N2C(=O)CC[C@@H]2CCCc2nc(C(=O)O)cs2)cc1 (stereo partly drawn) [compound 63, (S)-2-(3-(1-(4-(1-hydroxyhexyl)phenyl)-5-oxopyrrolidin-2-yl)propyl)thiazole-4-carboxylic acid]
18 | > 10000 | – | – | 1340 | 2530 | 784 | – | – | – | – | – | – | CCCCCC(O)c1ccc(N2C(=O)CC[C@@H]2COCc2csc(C(=O)O)c2)cc1 (stereo partly drawn) [compound 47, (R)-4-(((1-(4-(1-hydroxyhexyl)phenyl)-5-oxopyrrolidin-2-yl)methoxy)methyl)thiophene-2-carboxylic acid]
0.4 | 9150 | – | 5320 | 51 | 11 | 9 | – | – | 14600 | – | – | – | CCCCCCC(O)c1ccc(N2C(=O)CC[C@@H]2CCSc2nc(C(=O)O)cs2)cc1 (single isomer, unassigned) [compound 37]
0.4 | 6360 | > 10000 | 1560 | 25 | 3 | 12 | – | – | > 10000 | – | – | – | CCCCCCC(O)c1ccc(N2C(=O)CC[C@@H]2CCSc2nc(C(=O)O)cs2)cc1 (stereo partly drawn) [compound 33, (R)-2-(2-(1-(4-(1-hydroxyheptyl)phenyl)-5-oxopyrrolidin-2-yl)ethylthio)thiazole-4-carboxylic acid]
7 | > 10000 | – | – | 1960 | 3850 | 256 | – | – | – | – | – | – | CCCCCC(F)c1ccc(N2C(=O)CC[C@@H]2COCc2cc(C(=O)O)cs2)cc1 (stereo partly drawn) [compound 43, (R)-5-(((1-(4-(1-fluorohexyl)phenyl)-5-oxopyrrolidin-2-yl)methoxy)methyl)thiophene-3-carboxylic acid]
